Data published in patent US5376638A (Amylin Pharmaceuticals, Inc., priority 1992, dated 1994).
Entries after “also recorded” stand apart in the source; their conditions may differ. Where no end group is shown, it is not given here.

How the values were obtained:
[1] = tested on: insulin-stimulated glycogen synthesis in soleus muscle; experiment: soleus muscle assay (insulin-stimulated glycogen synthesis); set-up: species or system rat; conditions: for amylin antagonist action in the soleus muscle assay: in the presence of 100 nM rat amylin
Description: Concentrations of peptide dissolved in carrier-free buffers are determined by quantitative amino acid analysis, as described therein. The ability of compounds to act as antagonists in this assay is determined by measuring IC50 values. Standard errors are determined by fitting of sigmoidal dose response curves using a four parameter logistic equation (De Lean, A., Munson, P. J., Guardabasso, V. and Rodbard, D. (1988) ALLFIT, Version 2.7, National Institute of Child Health and Human Development, N.I.H. Bethesda, Md., 1 diskette). […] Similar results were obtained with the other antagonist compounds listed above.

[2] = fed rats, antagonist preinfusion; cited from earlier work
[3] = tested on: plasma renin activity; experiment: plasma renin activity after subcutaneous rat amylin in anesthetized rats; type: in vivo, Male Harlan Sprague Dawley rats; conditions: 0.5 mg i.v. bolus + 1 mg/hr infusion before 100 μg s.c. rat amylin, n=1, FIG. 3
Description: (§1) Male Harlan Sprague Dawley rats were housed at 22.7°±0.8° C. in a 12:12 hour light:dark cycle (experiments being performed during the light cycle) and fed and watered ad libitum (Diet LM-485, Teklad, Madison, Wis.). Animals used were aged 87-94 days and weighed 353-392 g. They were deprived of food for ~20 hours prior to experimentation.
Anesthesia was induced with 5% halothane, maintained at 2% during surgery and at 0.8-1% during recordings. Tracheotomy and cannulation of the right femoral artery and saphenous vein were performed. […] Colonic temperature was measured using a thermistor probe and controller (Model 73A, YSI, Yellow Springs, Ohio) which provided closed-loop control of core temperature by switching a heated operating table. […]
The remainder was frozen at -20° C. for measurement of plasma renin activity. Plasma renin activity was measured using the Gammacoat™ [^125 I] radioimmunoassay kit (Incstar Corp, Stillwater, Minn.) modified to accomodate small sample volumes. The assay system measured the renin-catalysed rate of generation of angiotensin-I in the presence of phenylmethylsulfonyl fluoride (PMSF) to prevent its proteolytic breakdown and/or conversion to angiotensin-II. Angiotensin-I generated in 90 minutes at 37° C. was then detected by specific radioimmunoassay with less than 0.02% cross reactivity to angiotensin-II, angiotensin-III or tetradecapeptide (renin substrate). […]

[4] = plasma lactate and glucose after subcutaneous rat amylin in anesthetized rats; type: in vivo, Male Harlan Sprague Dawley rats; conditions: 0.5 mg i.v. bolus + 1 mg/hr infusion before 100 μg s.c. rat amylin
[5] = tested on: amylin-induced hypocalcemia; experiment: amylin-induced hypocalcemia with antagonist infusion; type: in vivo; conditions: 1.5 mg + 3 mg/hr infusion, FIG. 4
[6] = target: CGRP receptors (Homo sapiens, UniProt O60894+Q16602); experiment: affinity for CGRP receptors in vitro; type: binding
[7] = target: T1, vascular CGRP1 receptor (Rattus norvegicus, UniProt Q63118+Q9JJ74); experiment: hypotensive response to intravenous amylin in vivo; conditions: three times the dose used in this study
T1 construct: from tissue; host or cells: vasculature of the intact animal (in vivo blood pressure response)

[8] = mean arterial pressure after amylin injection in rats; type: in vivo, Male Harlan Sprague Dawley rats; conditions: 100 μg rat amylin s.c., FIG. 1c
Description: as §1
Anesthesia was induced with 5% halothane, maintained at 2% during surgery and at 0.8-1% during recordings. Tracheotomy and cannulation of the right femoral artery and saphenous vein were performed. The femoral arterial line was connected to a pressure transducer (Spectramed P23XL transducer, Model 13-4615-58 amplifier, Gould, Cleveland, Ohio) and perfused with heparinized saline (2 U/ml) at 3.0 ml/hr. Colonic temperature was measured using a thermistor probe and controller (Model 73A, YSI, Yellow Springs, Ohio) which provided closed-loop control of core temperature by switching a heated operating table. The signal for mean arterial pressure was periodically sampled and stored with 12-bit precision at 1 Hz using a computerized data acquisition system (DT2801A A/D converters, DataTranslation, Marlboro, Mass.; AST Premium 386 computer, AST Research, Irvine, Calif.; Labtech Notebook software, Laboratory Technologies Corp, Wilmington, Mass.). […]

Chain of CGRP receptors (Q16602 23-461): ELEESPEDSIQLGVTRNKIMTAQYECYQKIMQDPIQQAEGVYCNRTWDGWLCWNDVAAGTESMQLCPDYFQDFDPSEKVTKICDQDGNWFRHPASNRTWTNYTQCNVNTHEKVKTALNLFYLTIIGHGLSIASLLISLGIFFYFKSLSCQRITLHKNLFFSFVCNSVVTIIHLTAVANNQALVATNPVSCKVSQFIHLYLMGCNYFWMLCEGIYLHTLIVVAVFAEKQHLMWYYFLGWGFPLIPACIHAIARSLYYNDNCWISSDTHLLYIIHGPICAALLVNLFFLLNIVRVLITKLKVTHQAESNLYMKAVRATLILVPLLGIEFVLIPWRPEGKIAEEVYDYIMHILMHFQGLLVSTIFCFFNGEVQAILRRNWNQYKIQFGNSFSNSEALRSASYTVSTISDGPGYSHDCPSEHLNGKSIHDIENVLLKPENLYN
Chain of CGRP receptors (O60894 27-148 partner): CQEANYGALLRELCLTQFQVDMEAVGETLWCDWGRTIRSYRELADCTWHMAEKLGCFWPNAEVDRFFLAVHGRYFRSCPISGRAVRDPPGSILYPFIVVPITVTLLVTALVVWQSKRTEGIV
T1 sequence (Q63118 24-464): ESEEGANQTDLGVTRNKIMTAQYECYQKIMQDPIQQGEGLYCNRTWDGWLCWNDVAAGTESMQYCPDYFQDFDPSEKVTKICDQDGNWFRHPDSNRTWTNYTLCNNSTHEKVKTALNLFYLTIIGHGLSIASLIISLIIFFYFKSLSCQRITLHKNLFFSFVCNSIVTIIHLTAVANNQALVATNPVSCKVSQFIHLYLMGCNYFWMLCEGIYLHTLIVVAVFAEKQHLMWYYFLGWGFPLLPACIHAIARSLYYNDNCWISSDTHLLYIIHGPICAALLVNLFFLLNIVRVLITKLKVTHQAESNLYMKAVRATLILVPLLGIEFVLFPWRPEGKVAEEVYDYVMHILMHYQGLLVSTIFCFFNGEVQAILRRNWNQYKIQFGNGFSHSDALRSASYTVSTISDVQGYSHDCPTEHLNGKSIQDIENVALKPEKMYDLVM
T1 sequence (Q9JJ74 27-148 partner): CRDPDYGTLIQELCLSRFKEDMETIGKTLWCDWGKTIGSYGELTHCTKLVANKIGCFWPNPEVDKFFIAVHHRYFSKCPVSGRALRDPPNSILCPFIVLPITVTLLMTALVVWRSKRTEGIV

^8-32 calcitonin(salmon)
agonist activity in the soleus muscle assay [1]: negligible agonist activity | amylin antagonist action in the soleus muscle assay [1]: act as amylin antagonists

^8-37 CGRP (VTHRLAGLLSRSGGVVKNNFVPTNVGSKAF; ends and bridges not checked; UniProt P06881 90-119, looked up, fragment) [reference compound]
agonist activity in the soleus muscle assay [1]: negligible agonist activity | amylin antagonist action in the soleus muscle assay [1]: act as amylin antagonists | insulin concentration 30 minutes following arginine infusion versus normal controls [2]: almost twice as high

^8-37 amylin (ATQRLANFLVHSSNNFGAILSSTNVGSNTY; ends and bridges not checked; UniProt P10997 41-70, looked up, fragment) [^ 8-37 amylin, amylin receptor antagonist]
agonist activity in the soleus muscle assay [1]: negligible agonist activity | amylin antagonist action in the soleus muscle assay [1]: act as amylin antagonists

acetyl-^30 Asn^32 Tyr^8-32 calcitonin(salmon)
amylin-induced elevation of plasma renin activity after antagonist preinfusion [3]: no amylin-induced elevation | amylin-induced increase in plasma glucose after antagonist infusion [4]: prevented | amylin-induced increase in plasma lactate after antagonist infusion [4]: prevented | prevention of amylin-induced hypocalcemia [5]: did not prevent | affinity for CGRP receptors in vitro [6]: low affinity | block of the hypotensive response to intravenous amylin [7]: does not fully block

rat amylin: Synthetic rat amylin (Bachem, Torrance, Calif.)
change in mean arterial pressure [8]: lack of change; also recorded: not associated with any significant change
